Measured values from ChEMBL document CHEMBL1201862, “PubChem BioAssay data set” (2004).
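Compound exposure: 48 hours, 5 concentrations, 96-well plates. The concentration for 50% growth inhibition is given as GI50.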 Calls of active or inactive are those of the source. No stated cut-off is given here; in the data, active = GI50 up to about 1.1 µM and inactive = higher.

Key:
Experiment in all cases: NCI tumour cell line growth inhibition, 48 h
CAKI-1 = test system: CAKI-1
SF-268 = test system: SF-268
HOP-62 = test system: HOP-62
TK-10 = test system: TK-10
K562 = test system: K562
UACC-62 = test system: UACC-62
KM12 = test system: KM12
PC-3 = test system: PC-3
SNB-19 = test system: SNB-19
UACC-257 = test system: UACC-257
A549 = test system: A549
SF-295 = test system: SF-295
MDA-MB-231 = test system: MDA-MB-231
SK-MEL-28 = test system: SK-MEL-28
ACHN = test system: ACHN
HCT-116 = test system: HCT-116
A498 = test system: A498
MOLT-4 = test system: MOLT-4
EKVX = test system: EKVX
NCI-H23 = test system: NCI-H23

Measured: GI50

CC1CC(C)C2=NOS3=C2C1=NO3 (stereo not given)
inactive: CAKI-1 > 100 µM | SF-268 > 100 µM | HOP-62 > 100 µM | TK-10 > 100 µM | K562 53.8 µM | UACC-62 79.8 µM | KM12 > 100 µM | PC-3 > 100 µM | SNB-19 > 100 µM | UACC-257 > 100 µM | A549 > 100 µM | SF-295 > 100 µM | MDA-MB-231 > 100 µM | SK-MEL-28 > 100 µM | ACHN > 100 µM | HCT-116 > 100 µM | A498 12.9 µM | MOLT-4 89.9 µM | EKVX 40 µM | NCI-H23 > 100 µM

COc1ccc(NC(=O)CC(=O)NNC(Sc2ccccc2)c2cc(/N=N/c3ccc(Br)cc3)ccc2O)cc1 (stereo not given)
inactive: CAKI-1 > 10 µM | SF-268 > 10 µM | HOP-62 > 10 µM | TK-10 > 10 µM | K562 > 10 µM | UACC-62 > 10 µM | KM12 > 10 µM | PC-3 > 10 µM | SNB-19 > 10 µM | UACC-257 > 10 µM | A549 > 10 µM | SF-295 > 10 µM | MDA-MB-231 > 10 µM | SK-MEL-28 > 10 µM | ACHN > 10 µM | HCT-116 4.81 µM | A498 > 10 µM | MOLT-4 3.86 µM | EKVX > 10 µM | NCI-H23 > 10 µM

CC(=O)O[C@H]1CCC2[C@@H]3CCC4NC(=O)C(C#N)C[C@]4(C)C3CC[C@@]21C (stereo not given in full)
inactive: CAKI-1 > 10 µM | SF-268 > 10 µM | HOP-62 > 10 µM | TK-10 > 10 µM | K562 > 10 µM | UACC-62 > 10 µM | KM12 > 10 µM | PC-3 > 10 µM | SNB-19 > 10 µM | UACC-257 > 10 µM | A549 > 10 µM | SF-295 > 10 µM | MDA-MB-231 > 10 µM | SK-MEL-28 > 10 µM | ACHN > 10 µM | HCT-116 > 10 µM | A498 > 10 µM | MOLT-4 > 10 µM | EKVX 8.17 µM | NCI-H23 > 10 µM

CCOC(=O)c1cccc(NC(=O)CCl)c1
inactive: CAKI-1 1.88 µM | SF-268 2.11 µM | HOP-62 2.44 µM | TK-10 6.03 µM | K562 3.08 µM | UACC-62 1.52 µM | KM12 7.46 µM | PC-3 6.1 µM | SNB-19 28.6 µM | UACC-257 5.09 µM | A549 10.4 µM | SF-295 12.3 µM | MDA-MB-231 4.57 µM | SK-MEL-28 16.7 µM | ACHN 3.48 µM | HCT-116 2.8 µM | A498 15.2 µM | MOLT-4 5.2 µM | EKVX 3.18 µM | NCI-H23 3.22 µM

CCCCCC1=CC(=O)C1(Cl)Cl
inactive: CAKI-1 8.3 µM | SF-268 14.7 µM | HOP-62 21.4 µM | TK-10 5.81 µM | K562 4.68 µM | UACC-62 10.9 µM | KM12 13.2 µM | PC-3 14.5 µM | SNB-19 24.9 µM | UACC-257 12.2 µM | A549 23.5 µM | SF-295 18.9 µM | MDA-MB-231 9.93 µM | SK-MEL-28 14.5 µM | ACHN 8.3 µM | HCT-116 11.9 µM | A498 20.4 µM | MOLT-4 3.67 µM | EKVX 20.1 µM | NCI-H23 14.3 µM

COc1cccc(/C=N/[N+](C)(C)C)c1O
inactive: CAKI-1 > 10 µM | SF-268 > 10 µM | HOP-62 > 10 µM | TK-10 > 10 µM | K562 > 10 µM | UACC-62 > 10 µM | KM12 > 10 µM | PC-3 > 10 µM | SNB-19 > 10 µM | UACC-257 > 10 µM | A549 > 10 µM | SF-295 > 10 µM | MDA-MB-231 > 10 µM | SK-MEL-28 > 10 µM | ACHN > 10 µM | HCT-116 > 10 µM | A498 > 10 µM | MOLT-4 > 10 µM | EKVX > 10 µM | NCI-H23 2.22 µM

O=CC1C[C@@H](N2C(=O)O[C@@H](c3ccccc3)[C@H]2c2ccccc2)[C@@H]1COCc1ccccc1 (stereo not given in full)
inactive: CAKI-1 36.2 µM | SF-268 17.3 µM | HOP-62 18 µM | TK-10 20.1 µM | K562 21.1 µM | UACC-62 16.8 µM | KM12 43.5 µM | PC-3 19.5 µM | SNB-19 19.9 µM | UACC-257 17.9 µM | A549 29.9 µM | SF-295 17.3 µM | MDA-MB-231 15.7 µM | SK-MEL-28 20 µM | ACHN 24.8 µM | HCT-116 16.7 µM | A498 20.9 µM | MOLT-4 6.04 µM | EKVX 20 µM | NCI-H23 17.6 µM

O=c1c2cc(Cl)ccc2[nH]c2cc(O)cc(O)c12
inactive: CAKI-1 > 10 µM | SF-268 > 10 µM | HOP-62 > 10 µM | TK-10 > 10 µM | K562 > 10 µM | UACC-62 > 10 µM | KM12 > 10 µM | PC-3 > 10 µM | SNB-19 > 10 µM | UACC-257 5.41 µM | A549 > 10 µM | SF-295 > 10 µM | MDA-MB-231 > 10 µM | SK-MEL-28 > 10 µM | ACHN > 10 µM | HCT-116 > 10 µM | A498 > 10 µM | MOLT-4 > 10 µM | EKVX 4.12 µM | NCI-H23 9.02 µM

COc1ccc(C(C)c2cc3c(cc2O)OCO3)cc1 (stereo not given)
inactive: CAKI-1 25.2 µM | SF-268 14.9 µM | HOP-62 16.4 µM | TK-10 16.3 µM | K562 6 µM | UACC-62 12.1 µM | KM12 12.9 µM | PC-3 15.7 µM | SNB-19 23.5 µM | UACC-257 15.6 µM | A549 14.7 µM | SF-295 14.3 µM | MDA-MB-231 14.2 µM | SK-MEL-28 16.8 µM | ACHN 19.7 µM | HCT-116 15.9 µM | A498 14.8 µM | MOLT-4 9.02 µM | EKVX 20.3 µM | NCI-H23 16.2 µM

CC(=O)Oc1ccc(/C=C/C(=O)OCCOC(=O)/C=C/c2ccc(OC(C)=O)c(OC(C)=O)c2)cc1OC(C)=O
inactive: CAKI-1 3.26 µM | SF-268 8.43 µM | HOP-62 1.26 µM | TK-10 10.2 µM | K562 4.89 µM | UACC-62 5 µM | KM12 10.1 µM | PC-3 12.1 µM | SNB-19 11.9 µM | UACC-257 10.5 µM | A549 16.1 µM | SF-295 8.97 µM | MDA-MB-231 14.5 µM | SK-MEL-28 14.4 µM | ACHN 4.05 µM | HCT-116 4.66 µM | A498 22 µM | MOLT-4 5.61 µM | EKVX 14.8 µM | NCI-H23 4.26 µM
